The source of these data is ChEMBL document CHEMBL1136561, “Thiophene-based vitronectin receptor antagonists” (Bioorg Med Chem Lett, 2003).

Experiment [1] is filed under the species Gallus gallus. Description: Inhibition of VEGF-mediated angiogenesis in the chick CAM assay expressed as capillary formation at 17 ug/mesh conc. In kind it is functional.
The species named for experiment [2] is Gallus gallus. Description: Inhibition of VEGF-mediated angiogenesis in the chick CAM assay expressed as capillary formation at 33 ug/mesh conc. Type of experiment: functional.
Experiment [3] is filed under the species Gallus gallus. Description: Inhibition of VEGF-mediated angiogenesis in the chick CAM assay expressed as capillary formation at 3 ug/mesh conc. In kind it is functional.
Experiment [4] addresses Integrin alpha-IIb/beta-3 (Homo sapiens, UniProt P05106+P08514). The experiment in a line: Inhibition of fibrinogen binding to integrin alphaIIb-beta3. Type of experiment: protein-complex assay.
Experiment [5] has as its target T1, Integrin alpha-V/beta-3 (Homo sapiens, UniProt P05106+P06756). The experiment in a line: Inhibition of fibrinogen binding to integrin alphaV-beta3 receptor. In kind it is protein-complex assay.
For experiment [6], the target named is T1, Integrin alpha-V/beta-3. The experiment in a line: Inhibition of fibrinogen binding to K562 cells expressing integrin alphaV-beta3. Type of experiment: cell-based.
In experiment [7] the target is Fibronectin receptor (Integrin alpha-5/beta-1 and alpha-V/beta-3) (Homo sapiens) (UniProt P05106+P05556+P06756+P08648). The experiment in a line: Selectivity ratio for alpha5-beta1 and alphaV-beta3 integrins. Type of experiment: protein-complex assay.
For experiment [8], the target named is Integrin alpha-V/beta-3 and alpha-IIb/beta 3 (Homo sapiens) (UniProt P05106+P06756+P08514). The experiment in a line: Selectivity ratio for alphaIIb-beta3 over alphaV-beta3 integrins. Type of experiment: protein assay.
Experiment [9] is filed under the species Homo sapiens. The experiment in a line: Selectivity ratio for alphaV-beta5 over alphaV-beta3 integrins.
The target in experiment [10] is Integrin alpha-5/beta-1 (Homo sapiens, UniProt P05556+P08648). The experiment in a line: Inhibition of fibronectin binding to K562 cells expressing integrin alpha5-beta1.
Experiment [11] has as its target Integrin alpha-V/beta-5 (Homo sapiens, UniProt P06756+P18084). Description: Inhibition of vitronectin binding to HT-29 cells expressing integrin alphaV-beta5. In kind it is cell-based.

pIC50: −log10 of the molar value.

T1 sequence (P05106 27-788 limits assumed): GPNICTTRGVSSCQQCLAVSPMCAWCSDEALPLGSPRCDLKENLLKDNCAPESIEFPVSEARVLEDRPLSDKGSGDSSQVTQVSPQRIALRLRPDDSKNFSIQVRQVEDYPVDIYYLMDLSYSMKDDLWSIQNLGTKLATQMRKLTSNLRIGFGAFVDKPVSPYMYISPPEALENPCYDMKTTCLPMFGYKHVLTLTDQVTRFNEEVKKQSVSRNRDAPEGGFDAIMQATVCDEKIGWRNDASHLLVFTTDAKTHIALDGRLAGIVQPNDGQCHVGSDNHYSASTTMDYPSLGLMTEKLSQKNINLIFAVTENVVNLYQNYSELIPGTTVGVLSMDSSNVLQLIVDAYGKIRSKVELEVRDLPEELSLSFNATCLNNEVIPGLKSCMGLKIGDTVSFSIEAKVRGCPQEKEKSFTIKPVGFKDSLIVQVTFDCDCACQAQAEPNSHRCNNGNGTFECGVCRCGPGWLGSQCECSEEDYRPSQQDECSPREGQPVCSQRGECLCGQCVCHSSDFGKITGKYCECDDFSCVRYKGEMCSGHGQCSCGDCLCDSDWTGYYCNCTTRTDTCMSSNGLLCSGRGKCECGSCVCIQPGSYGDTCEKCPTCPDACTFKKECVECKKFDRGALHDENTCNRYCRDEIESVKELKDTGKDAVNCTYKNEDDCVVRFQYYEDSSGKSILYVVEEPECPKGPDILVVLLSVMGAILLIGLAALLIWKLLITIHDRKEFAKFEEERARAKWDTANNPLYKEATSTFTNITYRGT
T1 sequence (P06756 31-889 limits assumed): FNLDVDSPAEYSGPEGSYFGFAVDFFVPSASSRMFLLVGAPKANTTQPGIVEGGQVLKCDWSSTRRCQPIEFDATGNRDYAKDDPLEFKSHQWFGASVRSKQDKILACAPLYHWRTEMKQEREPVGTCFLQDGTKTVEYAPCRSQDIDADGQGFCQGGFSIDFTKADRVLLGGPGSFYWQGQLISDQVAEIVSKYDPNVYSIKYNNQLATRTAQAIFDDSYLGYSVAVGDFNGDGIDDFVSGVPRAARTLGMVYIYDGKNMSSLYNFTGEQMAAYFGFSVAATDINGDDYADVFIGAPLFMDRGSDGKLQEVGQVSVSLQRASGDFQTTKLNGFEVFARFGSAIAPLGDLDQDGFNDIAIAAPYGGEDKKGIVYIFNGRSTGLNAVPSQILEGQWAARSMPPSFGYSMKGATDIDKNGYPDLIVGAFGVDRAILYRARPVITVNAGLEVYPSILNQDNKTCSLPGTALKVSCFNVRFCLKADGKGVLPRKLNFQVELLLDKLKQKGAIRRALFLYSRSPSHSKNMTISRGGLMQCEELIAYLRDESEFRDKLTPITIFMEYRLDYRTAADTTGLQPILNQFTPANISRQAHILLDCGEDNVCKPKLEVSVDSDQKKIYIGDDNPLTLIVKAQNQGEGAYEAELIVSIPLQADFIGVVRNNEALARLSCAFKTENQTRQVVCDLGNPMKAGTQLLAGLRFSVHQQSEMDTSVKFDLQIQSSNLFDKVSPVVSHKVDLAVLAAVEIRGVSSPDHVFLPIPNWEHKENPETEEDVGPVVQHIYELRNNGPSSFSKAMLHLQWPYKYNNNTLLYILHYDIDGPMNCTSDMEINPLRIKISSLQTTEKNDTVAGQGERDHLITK
T1 sequence (P06756 891-1048 limits assumed): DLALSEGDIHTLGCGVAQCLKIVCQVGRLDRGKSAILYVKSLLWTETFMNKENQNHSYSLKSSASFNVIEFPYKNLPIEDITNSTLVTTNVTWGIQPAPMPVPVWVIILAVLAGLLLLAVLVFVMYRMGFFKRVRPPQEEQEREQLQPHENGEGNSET
Integrin alpha-IIb/beta-3, sequence (P05106 27-788 limits assumed): as the sequence (P05106 27-788 limits assumed) above
Integrin alpha-IIb/beta-3, sequence (P08514 32-887 limits assumed): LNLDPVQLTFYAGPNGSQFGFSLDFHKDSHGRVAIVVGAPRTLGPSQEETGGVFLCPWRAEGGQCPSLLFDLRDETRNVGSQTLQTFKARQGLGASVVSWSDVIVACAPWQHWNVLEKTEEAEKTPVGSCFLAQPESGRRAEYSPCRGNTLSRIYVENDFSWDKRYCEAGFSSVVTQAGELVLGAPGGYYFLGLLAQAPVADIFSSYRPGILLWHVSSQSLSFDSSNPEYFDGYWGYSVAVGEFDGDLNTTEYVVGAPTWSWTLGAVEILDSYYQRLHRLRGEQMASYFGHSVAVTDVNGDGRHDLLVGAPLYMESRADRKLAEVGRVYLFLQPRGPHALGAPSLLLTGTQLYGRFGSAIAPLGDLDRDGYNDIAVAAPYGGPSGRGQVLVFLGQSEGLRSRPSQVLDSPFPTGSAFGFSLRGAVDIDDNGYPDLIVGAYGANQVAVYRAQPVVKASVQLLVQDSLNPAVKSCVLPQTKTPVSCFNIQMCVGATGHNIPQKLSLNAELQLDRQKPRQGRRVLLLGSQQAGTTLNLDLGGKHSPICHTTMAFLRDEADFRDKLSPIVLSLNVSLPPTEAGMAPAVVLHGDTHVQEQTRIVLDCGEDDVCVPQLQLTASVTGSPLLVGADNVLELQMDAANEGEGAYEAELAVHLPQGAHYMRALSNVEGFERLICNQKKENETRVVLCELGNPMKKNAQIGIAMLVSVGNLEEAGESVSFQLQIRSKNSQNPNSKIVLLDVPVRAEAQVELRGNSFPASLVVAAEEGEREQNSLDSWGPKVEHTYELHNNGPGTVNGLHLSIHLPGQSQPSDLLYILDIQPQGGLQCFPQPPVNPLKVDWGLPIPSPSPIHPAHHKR
Integrin alpha-IIb/beta-3, sequence (P08514 891-1039 limits assumed): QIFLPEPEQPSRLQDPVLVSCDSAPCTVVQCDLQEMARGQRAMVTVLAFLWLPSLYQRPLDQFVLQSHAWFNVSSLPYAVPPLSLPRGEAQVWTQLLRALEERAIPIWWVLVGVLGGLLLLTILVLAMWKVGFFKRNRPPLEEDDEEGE
Integrin alpha-5/beta-1, sequence (P05556 21-798 limits assumed): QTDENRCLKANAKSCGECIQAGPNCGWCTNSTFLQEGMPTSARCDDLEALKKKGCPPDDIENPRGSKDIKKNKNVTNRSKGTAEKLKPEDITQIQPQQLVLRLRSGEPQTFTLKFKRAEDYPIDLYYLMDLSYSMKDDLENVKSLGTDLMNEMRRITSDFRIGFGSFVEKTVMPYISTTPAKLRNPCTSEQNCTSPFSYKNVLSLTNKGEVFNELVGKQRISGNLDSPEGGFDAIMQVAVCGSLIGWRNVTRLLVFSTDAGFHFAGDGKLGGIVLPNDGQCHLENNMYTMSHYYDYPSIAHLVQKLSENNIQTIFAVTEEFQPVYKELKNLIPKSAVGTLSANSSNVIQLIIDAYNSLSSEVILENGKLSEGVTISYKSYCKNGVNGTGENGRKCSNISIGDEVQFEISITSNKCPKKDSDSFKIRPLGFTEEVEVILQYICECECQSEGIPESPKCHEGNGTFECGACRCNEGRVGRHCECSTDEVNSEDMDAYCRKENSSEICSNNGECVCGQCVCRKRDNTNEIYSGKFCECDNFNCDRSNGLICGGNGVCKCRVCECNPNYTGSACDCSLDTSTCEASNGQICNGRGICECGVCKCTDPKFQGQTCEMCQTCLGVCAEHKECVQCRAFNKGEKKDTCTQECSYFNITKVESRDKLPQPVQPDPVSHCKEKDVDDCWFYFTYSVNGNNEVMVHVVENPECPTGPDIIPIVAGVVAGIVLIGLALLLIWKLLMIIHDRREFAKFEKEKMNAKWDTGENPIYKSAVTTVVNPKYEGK
Integrin alpha-5/beta-1, sequence (P08648 42-894 limits assumed): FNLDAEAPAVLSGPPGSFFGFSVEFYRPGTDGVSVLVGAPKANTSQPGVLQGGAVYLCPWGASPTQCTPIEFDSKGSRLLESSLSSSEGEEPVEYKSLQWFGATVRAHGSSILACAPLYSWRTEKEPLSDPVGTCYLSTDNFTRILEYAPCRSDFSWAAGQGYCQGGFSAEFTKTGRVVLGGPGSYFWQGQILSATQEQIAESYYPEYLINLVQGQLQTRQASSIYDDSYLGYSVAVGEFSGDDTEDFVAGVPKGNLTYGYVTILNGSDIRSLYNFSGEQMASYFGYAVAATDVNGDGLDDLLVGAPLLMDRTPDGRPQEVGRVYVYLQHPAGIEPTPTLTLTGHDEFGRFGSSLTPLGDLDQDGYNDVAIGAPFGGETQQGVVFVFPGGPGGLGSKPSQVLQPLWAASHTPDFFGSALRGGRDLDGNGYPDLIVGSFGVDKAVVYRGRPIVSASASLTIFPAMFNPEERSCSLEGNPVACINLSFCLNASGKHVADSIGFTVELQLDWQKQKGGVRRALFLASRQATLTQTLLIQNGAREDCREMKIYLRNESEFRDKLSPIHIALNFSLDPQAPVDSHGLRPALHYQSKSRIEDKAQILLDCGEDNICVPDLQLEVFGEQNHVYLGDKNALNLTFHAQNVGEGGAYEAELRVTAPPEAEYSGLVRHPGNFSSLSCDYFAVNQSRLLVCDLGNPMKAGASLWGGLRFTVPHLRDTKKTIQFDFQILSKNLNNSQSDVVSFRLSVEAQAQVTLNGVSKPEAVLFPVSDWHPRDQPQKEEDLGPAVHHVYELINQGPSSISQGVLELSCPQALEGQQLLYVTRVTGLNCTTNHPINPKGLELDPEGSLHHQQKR
Integrin alpha-5/beta-1, sequence (P08648 895-1049 limits assumed): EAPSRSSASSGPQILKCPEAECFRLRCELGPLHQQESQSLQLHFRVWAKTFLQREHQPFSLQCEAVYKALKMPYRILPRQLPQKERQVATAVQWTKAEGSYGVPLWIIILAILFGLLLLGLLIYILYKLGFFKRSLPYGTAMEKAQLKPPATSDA

A word on the Inhibition: it is the relative decrease from the control value, in per cent. Broadly, the pIC50 is −log10 of the IC50, conventionally taken in molar units. For the compound `N=C(N)Nc1cccc(-c2ccc(C(=O)NC[C@H](NS(=O)(=O)c3ccccc3)C(=O)O)s2)c1.O=C(O)C(F)(F)F`, the values for the Inhibition in experiment [1], in [2] and in [3] were 66%, 98% and 29%, respectively. Further, the pIC50 is 9.23 in experiment [4], 9.00 in experiment [5], 9.72 in experiment [6] and 7.02 in experiment [10]. Further, the Ratio came out at 500 in [7], 3 in [8] and 33 in experiment [9].
In the case of `N=C(N)NCc1ccccc1-c1ccc(C(=O)NC[C@H](NS(=O)(=O)c2ccccc2)C(=O)O)s1`, the figures for the pIC50 in experiment [4], in experiment [5] and in experiment [6] were 11.24, 10.40 and 7.68, respectively. Moreover, in experiment [8], the Ratio was less than 0.1.
As to `N=C(N)NCc1ccc(-c2ccc(C(=O)NC[C@H](NS(=O)(=O)c3ccccc3)C(=O)O)s2)cc1`, the pIC50 in experiment [4] is 8.21; in experiment [5], 8.68; in [6] it was 6.14. The Ratio in experiment [8] is less than 0.1.
With `Cc1cc(C)c(S(=O)(=O)N[C@@H](CNC(=O)c2ccc(-c3cccc(NC(=N)N)c3)s2)C(=O)O)c(C)c1`, the negative-log IC50 (pIC50) in [4] was 9.51; in experiment [5] it was 8.85; in [6], 12.04; in experiment [11], 8.60; in [10], 7.59. The Ratio turned out to be 28300 in [7], 300 in experiment [8] and 2720 in [9].
`Cc1cc(C)c(S(=O)(=O)N[C@@H](CNC(=O)c2ccc(-c3cccc(CN=C(N)N)c3)s2)C(=O)O)c(C)c1.O=C(O)C(F)(F)F`: the Inhibition in [1] is listed as 91%; in experiment [2], 95%; in experiment [3], 65%. Besides, the values for the pIC50 in [4], in [5] and in [6] were 9.80, 8.47 and 7.96, respectively. Moreover, the Ratio is 6 in experiment [7], less than 0.1 in experiment [8] and 1 in experiment [9].
As to `N=C(N)Nc1ccccc1-c1ccc(C(=O)NC[C@H](NS(=O)(=O)c2ccccc2)C(=O)O)s1`, the negative-log IC50 (pIC50) is 9.60 in [4], 5.26 in experiment [5] and 5.27 in experiment [6]. In experiment [8], the Ratio was less than 0.1.
For the compound `N=C(N)Nc1ccc(-c2ccc(C(=O)NC[C@H](NS(=O)(=O)c3ccccc3)C(=O)O)s2)cc1`, the negative logarithm of the IC50 (pIC50) in experiment [4] is 11.89; in experiment [5] it was 7.15; in experiment [6] it was 5.42. In experiment [8], the Ratio was less than 0.1.
As to `N=C(N)NCc1cccc(-c2ccc(C(=O)NC[C@H](NS(=O)(=O)c3ccccc3)C(=O)O)s2)c1.O=C(O)C(F)(F)F`, the Inhibition in experiment [1] was 42%; in [2], 57%; in experiment [3], 29%. Besides, the negative-log IC50 (pIC50) was 9.47 in experiment [4], 8.66 in experiment [5] and 9.13 in experiment [6]. Also, the Ratio in experiment [7] was 864; in experiment [8], less than 0.5; in experiment [9], 97.
